pEC50: −log10 of the molar value.
Molecular target: T1, human RORgT (Homo sapiens, UniProt P51449)
T1 construct: expressed in transfected cells
T1 sequence (P51449 267-516): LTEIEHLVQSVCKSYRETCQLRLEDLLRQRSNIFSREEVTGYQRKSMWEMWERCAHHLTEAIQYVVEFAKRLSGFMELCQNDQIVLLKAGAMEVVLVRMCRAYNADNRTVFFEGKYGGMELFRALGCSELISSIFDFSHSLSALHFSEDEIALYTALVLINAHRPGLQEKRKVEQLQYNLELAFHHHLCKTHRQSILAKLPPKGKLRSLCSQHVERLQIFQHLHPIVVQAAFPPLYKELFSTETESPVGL
Experiment: RORgT Gal4 Luciferase Reporter Gene Assay
Assay type: cell-based
Details: engineered Jurkat cells overexpressing RORgT (LBD or full length) fused with Gal4 Luc reporter; 18 hours at 37° C.; luminescence
How it was run: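 Jurkat cells expressing Gal4 Luc with either RORgT LBD (aa267-516) or full-length human RORgT, 10,000 cells/well, treated with compound (40 µM to 0.67 nM final, 3-fold dilutions) for 18 h at 37° C. Steady-Glo luminescence read; inhibition of constitutive activity as % signal-window reduction relative to a control compound.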

SMILES	pEC50
O=C(O)[C@H]1CC[C@H](C(=O)N2CC[C@@]3(S(=O)(=O)c4ccc(F)cc4)c4ccc(Oc5c(F)ccnc5F)cc4CC[C@@H]23)CC1 [Example 115, (1r,4r)-4-[(3aR,9bR)-7-[(2,4-difluoropyridin-3-yl)oxy]-9b-(4-fluorobenzenesulfonyl)-1H,2H,3H,3aH,4H,5H,9bH-benzo[e]indole-3-carbonyl]cyclohexane-1-carboxylic acid]	7.60
O=C(O)[C@H]1CC[C@H](C(=O)N2CC[C@@]3(S(=O)(=O)c4ccc(F)cc4)c4ccc(Oc5cccnc5F)cc4CC[C@@H]23)CC1 [Example 116, (1r,4r)-4-[(3aR,9bR)-9b-(4-fluorobenzenesulfonyl)-7-[(2-fluoropyridin-3-yl)oxy]-1H,2H,3H,3aH,4H,5H,9bH-benzo[e]indole-3-carbonyl]cyclohexane-1-carboxylic acid]	7.29
O=C(C1CCS(=O)(=O)CC1)N1CC[C@@]2(S(=O)(=O)c3ccc(F)cc3)c3ccc(Oc4cccnc4F)cc3CC[C@@H]12 [Example 117, 4-[(3aR,9bR)-9b-(4-fluorobenzenesulfonyl)-7-[(2-fluoropyridin-3-yl)oxy]-1H,2H,3H,3aH,4H,5H,9bH-benzo[e]indole-3-carbonyl]-1λ^6-thiane-1,1-dione]	8.15
O=C(C1CCS(=O)(=O)CC1)N1CC[C@@]2(S(=O)(=O)c3ccc(F)cc3)c3ccc(Sc4c(Cl)cccc4Cl)cc3CC[C@@H]12 [Example 118, 4-[(3aR,9bR)-7-[(2,6-dichlorophenyl)sulfanyl]-9b-(4-fluorobenzenesulfonyl)-1H,2H,3H,3aH,4H,5H,9bH-benzo[e]indole-3-carbonyl]-1λ^6-thiane-1,1-dione]	8.89
O=C(O)[C@H]1CC[C@H](C(=O)N2CC[C@@]3(S(=O)(=O)c4ccc(F)cc4)c4ccc(Sc5c(Cl)cccc5Cl)cc4CC[C@@H]23)CC1 [Example 119, (1r,4r)-4-[(3aR,9bR)-7-[(2,6-dichlorophenyl)sulfanyl]-9b-(4-fluorobenzenesulfonyl)-1H,2H,3H,3aH,4H,5H,9bH-benzo[e]indole-3-carbonyl]cyclohexane-1-carboxylic acid]	8.85
O=C(O)[C@H]1CC[C@H](C(=O)N2CC[C@@]3(S(=O)(=O)c4ccc(F)cc4)c4ccc(OCc5ccccc5)cc4CC[C@@H]23)CC1 [Example 120, (1r,4r)-4-[(3aR,9bR)-7-(benzyloxy)-9b-(4-fluorobenzenesulfonyl)-1H,2H,3H,3aH,4H,5H,9bH-benzo[e]indole-3-carbonyl]cyclohexane-1-carboxylic acid]	7.74
O=C(O)[C@H]1CC[C@H](C(=O)N2CC[C@@]3(S(=O)(=O)c4ccc(F)cc4)c4ccc(OCc5c(Cl)cccc5Cl)cc4CC[C@@H]23)CC1 [Example 121, (1r,4r)-4-[(3aR,9bR)-7-[(2,6-dichlorophenyl)methoxy]-9b-(4-fluorobenzenesulfonyl)-1H,2H,3H,3aH,4H,5H,9bH-benzo[e]indole-3-carbonyl]cyclohexane-1-carboxylic acid]	8.01
NS(=O)(=O)CC(=O)N1CC[C@@]2(S(=O)(=O)c3ccc(F)cc3)c3ccc(OCc4c(Cl)cccc4Cl)cc3CC[C@@H]12 [Example 122, 2-[(3aR,9bR)-7-[(2,6-dichlorophenyl)methoxy]-9b-(4-fluorobenzenesulfonyl)-1H,2H,3H,3aH,4H,5H,9bH-benzo[e]indol-3-yl]-2-oxoethane-1-sulfonamide]	6.90
O=C(C1CCS(=O)(=O)CC1)N1CC[C@@]2(S(=O)(=O)c3ccccc3)c3ccc(OCc4c(F)cccc4Cl)cc3CC[C@@H]12 [Example 123, 4-[(3aR,9bR)-9b-(benzenesulfonyl)-7-[(2-chloro-6-fluorophenyl)methoxy]-1H,2H,3H,3aH,4H,5H,9bH-benzo[e]indole-3-carbonyl]-1λ^6-thiane-1,1-dione]	8.15
Cc1ccccc1COc1ccc2c(c1)CC[C@H]1N(C(=O)C3CCS(=O)(=O)CC3)CC[C@@]21S(=O)(=O)c1ccccc1 [Example 124, 4-[(3aR,9bR)-9b-(benzenesulfonyl)-7-[(2-methylphenyl)methoxy]-1H,2H,3H,3aH,4H,5H,9bH-benzo[e]indole-3-carbonyl]-1λ^6-thiane-1,1-dione]	7.47
O=C(C1CCS(=O)(=O)CC1)N1CC[C@@]2(S(=O)(=O)c3ccccc3)c3ccc(OCC4CCCCC4)cc3CC[C@@H]12 [Example 125, 4-[(3aR,9bR)-9b-(benzenesulfonyl)-7-(cyclohexylmethoxy)-1H,2H,3H,3aH,4H,5H,9bH-benzo[e]indole-3-carbonyl]-1λ^6-thiane-1,1-dione]	7.62
O=C(C1CCS(=O)(=O)CC1)N1CC[C@@]2(S(=O)(=O)c3ccccc3)c3ccc(OCc4c(Cl)cccc4Cl)cc3CC[C@@H]12 [Example 126, 4-[(3aR,9bR)-9b-(benzenesulfonyl)-7-[(2,6-dichlorophenyl)methoxy]-1H,2H,3H,3aH,4H,5H,9bH-benzo[e]indole-3-carbonyl]-1λ^6-thiane-1,1-dione]	8.07
O=C(C1CCS(=O)(=O)CC1)N1CC[C@@]2(S(=O)(=O)c3ccccc3)c3ccc(OCc4ccccc4Cl)cc3CC[C@@H]12 [Example 127, 4-[(3aR,9bR)-9b-(benzenesulfonyl)-7-[(2-chlorophenyl)methoxy]-1H,2H,3H,3aH,4H,5H,9bH-benzo[e]indole-3-carbonyl]-1λ^6-thiane-1,1-dione]	7.92
O=C(C1CCS(=O)(=O)CC1)N1CC[C@@]2(S(=O)(=O)c3ccc(F)cc3)c3ccc(OCc4c(Cl)cccc4Cl)cc3CC[C@@H]12 [Example 128, 4-[(3aR,9bR)-7-[(2,6-dichlorophenyl)methoxy]-9b-(4-fluorobenzenesulfonyl)-1H,2H,3H,3aH,4H,5H,9bH-benzo[e]indole-3-carbonyl]-1λ^6-thiane-1,1-dione]	7.89
O=C(C1CCS(=O)(=O)CC1)N1CC[C@@]2(S(=O)(=O)c3ccccc3)c3ccc(OCc4cc(Cl)ccc4Cl)cc3CC[C@@H]12 [Example 129, 4-[(3aR,9bR)-9b-(benzenesulfonyl)-7-[(2,5-dichlorophenyl)methoxy]-1H,2H,3H,3aH,4H,5H,9bH-benzo[e]indole-3-carbonyl]-1λ^6-thiane-1,1-dione]	7.77
O=C(C1CCS(=O)(=O)CC1)N1CC[C@@]2(S(=O)(=O)c3ccccc3)c3ccc(OCc4cc(F)ccc4Cl)cc3CC[C@@H]12 [Example 130, 4-[(3aR,9bR)-9b-(benzenesulfonyl)-7-[(2-chloro-5-fluorophenyl)methoxy]-1H,2H,3H,3aH,4H,5H,9bH-benzo[e]indole-3-carbonyl]-1λ^6-thiane-1,1-dione]	7.92

Other lines, results leading:

pEC50	SMILES
8.07	O=C(C1CCS(=O)(=O)CC1)N1CC[C@@]2(S(=O)(=O)c3ccccc3)c3ccc(OCc4c(F)ccc(F)c4Cl)cc3CC[C@@H]12 [Example 131, 4-[(3aR,9bR)-9b-(benzenesulfonyl)-7-[(2-chloro-3,6-difluorophenyl)methoxy]-1H,2H,3H,3aH,4H,5H,9bH-benzo[e]indole-3-carbonyl]-1λ^6-thiane-1,1-dione]
8.02	O=C(C1CCS(=O)(=O)CC1)N1CC[C@@]2(S(=O)(=O)c3ccccc3)c3ccc(OCc4c(F)cccc4C(F)(F)F)cc3CC[C@@H]12 [Example 132, 4-[(3aR,9bR)-9b-(benzenesulfonyl)-7-{[2-fluoro-6-(trifluoromethyl)phenyl]methoxy}-1H,2H,3H,3aH,4H,5H,9bH-benzo[e]indole-3-carbonyl]-1λ^6-thiane-1,1-dione]
7.77	O=C(C1CCS(=O)(=O)CC1)N1CC[C@@]2(S(=O)(=O)c3ccccc3)c3ccc(OCc4c(F)cccc4F)cc3CC[C@@H]12 [Example 133, 4-[(3aR,9bR)-9b-(benzenesulfonyl)-7-[(2,6-difluorophenyl)methoxy] -1H,2H,3H,3aH,4H,5H,9bH-benzo[e]indole-3-carbonyl]-1λ^6-thiane-1,1-dione]
7.66	O=C(C1CCS(=O)(=O)CC1)N1CC[C@@]2(S(=O)(=O)c3ccccc3)c3ccc(OCc4ccc(F)cc4Cl)cc3CC[C@@H]12 [Example 134, 4-[(3aR,9bR)-9b-(benzenesulfonyl)-7-[(2-chloro-4-fluorophenyl)methoxy]-1H,2H,3H,3aH,4H,5H,9bH-benzo[e]indole-3-carbonyl]-1λ^6-thiane-1,1-dione]
8.01	O=C(C1CCS(=O)(=O)C1)N1CC[C@@]2(S(=O)(=O)c3ccccc3)c3ccc(OCc4c(F)cccc4Cl)cc3CC[C@@H]12 (stereo partly drawn) [Example 135, 3-[(3aR,9bR)-9b-(benzenesulfonyl)-7-[(2-chloro-6-fluorophenyl)methoxy]-1H,2H,3H,3aH,4H,5H,9bH-benzo[e]indole-3-carbonyl]-1λ^6-thiolane-1,1-dione]
7.80	CC(=O)N1CCC(C(=O)N2CC[C@@]3(S(=O)(=O)c4ccccc4)c4ccc(OCc5c(F)cccc5Cl)cc4CC[C@@H]23)CC1 [Example 136, 1-{4-[(3aR,9bR)-9b-(benzenesulfonyl)-7-[(2-chloro-6-fluorophenyl)methoxy]-1H,2H,3H,3aH,4H,5H,9bH-benzo[e]indole-3-carbonyl]piperidin-1-yl}ethan-1-one]
8.06	CS(=O)(=O)N1CCC(C(=O)N2CC[C@@]3(S(=O)(=O)c4ccccc4)c4ccc(OCc5c(F)cccc5Cl)cc4CC[C@@H]23)CC1 [Example 137, 4-[(3aR,9bR)-9b-(benzenesulfonyl)-7-[(2-chloro-6-fluorophenyl)methoxy]-1H,2H,3H,3aH,4H,5H,9bH-benzo[e]indole-3-carbonyl]-1-methanesulfonylpiperidine]
8.06	O=C1CC[C@@H](C(=O)N2CC[C@@]3(S(=O)(=O)c4ccccc4)c4ccc(OCc5c(F)cccc5Cl)cc4CC[C@@H]23)N1 [Example 138, (5S)-5-[(3aR,9bR)-9b-(benzenesulfonyl)-7-[(2-chloro-6-fluorophenyl)methoxy]-1H,2H,3H,3aH,4H,5H,9bH-benzo[e]indole-3-carbonyl]pyrrolidin-2-one]

— patent US20230295087A1, “AGONISTS OF ROR GAMMAt” (BRISTOL-MYERS SQUIBB COMPANY, priority 2019, published 2023)
